{"source": "paper PMC13198932", "about": "“Pyrazolone-based ERO1 inhibitors in ERO1-driven triple-negative breast cancer and SEPN1-related myopathy: Structure–activity relationship and therapeutic potential” (Pharmacological research, 2025)", "key": {"WT and SEPN1 KO mice": {"test_system": "WT and SEPN1 KO mice", "test": "Whole-body plethysmography in WT and SEPN1 KO mice", "format": "in vivo", "settings": "10 mg/kg i.p. once daily for five days", "description": "Wild-type (WT) and SEPN1 knockout (KO) C57BL/6 male mice, aged 4 months, were fed either a selenium-deficient diet or a diet containing 0,4 ppm selenium for four months (cod. 10105101, Charles River). Experimental protocols followed D.lgs. 26/2014 (authorization 19/2008-A; authorization 465/2023-PR to E. Zito). All animal experiments were performed in accordance with the ARRIVE guidelines and complied with relevant national and international laws, regulations, and policies governing the care and use of laboratory animals, including Italian law.\nWild-type (WT) and SEPN1 knockout (KO) male mice, previously fed a selenium-deficient diet or a diet containing 0.4 ppm selenium, were randomized to receive intraperitoneal (i.p.) injections of I29 or vehicle alone. Treatments were administered once daily for five consecutive days at a dose of 10 mg/kg. Twenty-four hours after the final injection, mice underwent whole-body plethysmography (Whole Body Plethysmography by emkaTechnologies) under baseline conditions in ambient air to assess several respiratory parameters reflecting ventilatory efficiency. In particular, tidal volume (TV), breathing frequency (f), peak inspiratory flow (PIF), and mean inspiratory flow (TV/inspiratory time [TI]) were measured. Both intra- and inter-subject coefficients of variation (CV) for TV and f were also computed."}, "E0771 cells": {"test_system": "E0771 cells", "test": "MTS assay of metabolic activity in E0771 cells", "format": "cell-based, murine", "settings": "E0771, dose-response, 24 h, 1 % FBS", "description": "Six thousand cells (MDAMB231 and E0771) per well were seeded in 96-well plates and cultured in medium containing 1 % FBS. Cells were treated with varying concentrations of compounds and, after 24 h, incubated with MTS [3-(4,5-dimethylthiazol-2-yl)-5-(3-carboxymethoxyphenyl)-2-(4 sulfophenyl)2Htetrazolium]and PMS (phenazine methosulfate), following the instructions of the CellTiter 96® Aqueous Non-Radioactive Cell Proliferation Assay (Promega). Measurements were performed using a TECAN Infinite M200 plate reader with […] at 490 nm."}, "[1]": {"test_system": "WT and SEPN1 KD C2C12 muscle cells", "test": "Real-time quantitative RT-PCR of ER stress markers BIP, CHOP, ERO1", "format": "cell-based", "settings": "2 μM", "excerpt": "RNA from WT and SEPN1KD C2C12 was reverse-transcribed and analyzed using the Applied Biosystems’ real-time PCR System and the ΔΔCt method. Relative gene expression in cells was normalized to Actin mRNA levels as in [27]."}, "WT and SEPN1 KO myotubes": {"test_system": "WT and SEPN1 KO myotubes", "test": "TMRM staining of mitochondrial membrane potential in WT and SEPN1 KO myotubes", "format": "cell-based, mice", "settings": "1–5 μM, 16 h treatment", "description": "Muscle stem cells were isolated from muscles of 1-month-old wild-type (WT) and SEPN1 knockout (KO) mice using a tissue dissociation protocol with the gentleMACS™ Octo Dissociator with Heaters (Miltenyi Biotec, Bergisch Gladbach, Germany), followed by magnetic depletion. […]\nAfter 16 h of treatment with EN460 or I29 in differentiation medium, the culture medium was removed and replaced with the TMRM staining solution for the assessment of mitochondrial membrane potential. […] TMRM fluorescence was acquired at λexc 561 nm / λem 595 nm by a Nikon A1 confocal system equipped with an Okolab stage incubator (CO2 5 %, 37°C, 90 % humidity) immediately after TMRM and over a 10-minute baseline period with 65 s time interval. […] Data were analyzed using ImageJ. Briefly, background noise was set to NaN and the remaining signal quantified as mean pixel gray values. Data were expressed as ΔF/F0 (F0= mean of baseline signal)."}, "[2]": {"target": "T1, ERO1 in WT and SEPN1 KO myotubes (Mus musculus, UniProt Q8R180)", "T1 construct": "endogenous in cells; host or cells: primary myotubes from WT and SEPN1 KO C57BL/6 mice", "T1 sequence (Q8R180 24-464)": "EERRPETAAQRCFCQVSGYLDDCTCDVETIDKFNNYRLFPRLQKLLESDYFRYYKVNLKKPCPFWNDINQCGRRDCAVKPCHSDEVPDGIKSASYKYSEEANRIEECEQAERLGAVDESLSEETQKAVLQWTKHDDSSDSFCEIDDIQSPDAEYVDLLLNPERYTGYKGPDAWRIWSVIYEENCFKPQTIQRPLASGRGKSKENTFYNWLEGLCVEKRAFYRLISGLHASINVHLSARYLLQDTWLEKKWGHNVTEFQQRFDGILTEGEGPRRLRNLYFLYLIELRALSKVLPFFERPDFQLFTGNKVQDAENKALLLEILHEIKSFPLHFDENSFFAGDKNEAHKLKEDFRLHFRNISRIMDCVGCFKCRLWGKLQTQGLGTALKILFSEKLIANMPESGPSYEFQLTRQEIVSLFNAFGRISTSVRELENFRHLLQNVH", "test": "ERO1 redox state by non-reducing immunoblot in WT and SEPN1 KO myotubes", "format": "cell-based, mice", "settings": "3 h treatment", "description": "Muscle stem cells were isolated from muscles of 1-month-old wild-type (WT) and SEPN1 knockout (KO) mice using a tissue dissociation protocol with the gentleMACS™ Octo Dissociator with Heaters (Miltenyi Biotec, Bergisch Gladbach, Germany), followed by magnetic depletion. To generate myotubes, cells were cultured on Matrigel-coated Ibidi μ-Slide 8 well chambers (Cat. No. 80826, Ibidi GmbH, Gräfelfing, Germany) in DMEM (EuroClone, Pero, Milan, Italy) supplemented with 20 % fetal bovine serum (EuroClone), 3 % chick embryo extract (Cat. 11485015, Fisher Scientific SAS), 10 ng/mL basic fibroblast growth factor (Cat. 13256029, Life Technologies Europe BV), 1 % GlutaMAX (Gibco; Thermo Fisher Scientific, Waltham, MA, USA), and 1 % penicillin-streptomycin (EuroClone).\nAfter 48 h of proliferation, cells were cultured for an additional 2 days in medium containing 2 % horse serum (EuroClone) to induce differentiation, then harvested for analysis. For ERO1 redox state, cells were treated for 3 h with either EN460 or I29, harvested and followed by a non-reducing ERO1 Immunoblot."}, "[3]": {"settings": "selenium-supplemented (0.4 ppm) SEPN1 KO mice"}}, "data": [{"smiles": "O=C1/C(=C/c2ccc(-c3ccccc3)o2)C(C(F)(F)F)=NN1c1ccccc1F", "note": "[I29]", "values": [{"measurement": "respiratory function", "setting": "WT and SEPN1 KO mice; SEPN1 KO mice", "value": "failed to improve respiratory function"}, {"measurement": "respiratory parameters", "setting": "WT and SEPN1 KO mice; WT mice, independent of selenium content in the diet", "value": "mild improvement in respiratory parameters"}, {"measurement": "variability in tidal volume (CV TV)", "setting": "WT and SEPN1 KO mice; selenium-deficient SEPN1 KO mice", "value": "increased CV TV"}, {"measurement": "variability in respiratory frequency (CV f)", "setting": "WT and SEPN1 KO mice; [3]", "value": "concomitant reduction in CV f"}, {"measurement": "variability in tidal volume (CV TV)", "setting": "WT and SEPN1 KO mice; [3]", "value": "consistently reduced CV TV"}, {"measurement": "metabolic activity (MTS assay)", "setting": "E0771 cells", "value": "superior efficacy of I29 over EN460"}, {"measurement": "CHOP expression", "setting": "[1]", "value": "downregulate CHOP expression"}, {"measurement": "TMRM fluorescence (mitochondrial membrane potential)", "setting": "WT and SEPN1 KO myotubes", "value": "significant increase in TMRM fluorescence"}, {"measurement": "reduced state of ERO1 compared with EN460", "setting": "[2]", "value": "more effective than EN460"}]}]}
